Measured values: patent US10494378B2, “Fused ring pyrimidine compound, intermediate, and preparation method, composition and use thereof” (GUANGZHOU MAXINOVEL PHARMACEUTICALS CO., LTD., priority 2015, dated 2019)

Key:
Assay type in all cases: biochemical
[1] = target: T1, LYNα kinase (Homo sapiens, UniProt P07948); assay: IC50 evaluation assay of Src family kinase inhibition: LYNα; settings: 28° C.; average of two tests; read-out: IC50 (nM) inhibiting Src family kinase LYNα
T1 construct: purchased Carna 08-171
Protocol: (§1) 1. The compound was dissolved in 100% DMSO, diluted into solutions with appropriate concentration gradients with water according to experimental requirement, and added to a 96-well plate.
(§2) 2. c-Src kinase (Carna, Cat. No. 08-173, Lot. No. 05CBS-1367), LYNαkinase (Carna, Cat. No. 08-171, Lot. No. 06CBS-3296D), FYN kinase (Carna, Cat. No. 08-068, Lot. No. 05CBS-1032), LCK kinase (Carna, Cat. No. 08-170, Lot. No. 07CBS-2482), HCK kinase (BPS, Cat. No. 40440, Lot. No. 1001), FGR kinase (Carna, Cat. No. 08-166, Lot. No. 05CBS-2781), YES kinase (Carna, Cat. No. 08-175, Lot. No. 06CBS-3247) were diluted to the optimum concentration with the following buffer solution: 50 mM HEPES, pH 7.5, 0.0015% Brij-35, 10 mM MgCl2, 2 mM DTT. Transfer to the 96-well plate and incubate with the compound at 28° C. for a period of time.
(§3) 3. The buffer solution (100 mM HEPES, pH 7.5, 0.0015% Brij-35, 0.2% Coating Reagent and […]) was added to terminate the reaction.
(§4) 4. The conversion rate was read with Caliper Reader. The inhibition rate was calculated as the average of two tests.

[2] = target: T2, LCK kinase (Homo sapiens, UniProt P06239); assay: IC50 evaluation assay of Src family kinase inhibition: LCK; settings: 28° C.; average of two tests; read-out: IC50 (nM) inhibiting Src family kinase LCK
T2 construct: purchased Carna 08-170
Protocol: as §1, §2, §3, §4

[3] = target: T3, FGR kinase (Homo sapiens, UniProt P09769); assay: IC50 evaluation assay of Src family kinase inhibition: FGR; settings: 28° C.; average of two tests; read-out: IC50 (nM) inhibiting Src family kinase FGR
T3 construct: purchased Carna 08-166
Protocol: as §1, §2, §3, §4

[4] = target: T4, FGFR2 kinase (Homo sapiens, UniProt P21802); assay: IC50 evaluation assay of FGFR2 kinase inhibition (Caliper); settings: 28° C.; average of two tests; read-out: IC50 (nM) inhibiting FGFR 2 kinase
T4 construct: purchased Carna 08-134
Protocol: as §1
2. FGFR1 kinase (Carna, Cat. No. 08-133, Lot. No. 09CBS-0989) and FGFR2 kinase (Carna, Cat. No. 08-134, Lot. No. 07CBS-2468), JAK3 kinase (Carna, Cat. No. 08-135, Lot. No. 06CBS-3177) were diluted to the optimum concentration with the following buffer solution: 50 mM HEPES, pH 7.5, 0.0015% Brij-35, 2 mM DTT. Transfer to the 96-well plate and incubate with the compound at 28° C. for a period of time.
as §3, §4

[5] = target: T5, FLT3-D835Y kinase (Homo sapiens, UniProt P36888, D835Y); assay: IC50 evaluation assay of FLT3-D835Y kinase inhibition (Caliper); settings: 28° C.; average of two tests; read-out: IC50 (nM) inhibiting FLT3-D835Y kinase
T5 construct: purchased Invitrogen PR7450A
T5 sequence (P36888 27-993 D835Y): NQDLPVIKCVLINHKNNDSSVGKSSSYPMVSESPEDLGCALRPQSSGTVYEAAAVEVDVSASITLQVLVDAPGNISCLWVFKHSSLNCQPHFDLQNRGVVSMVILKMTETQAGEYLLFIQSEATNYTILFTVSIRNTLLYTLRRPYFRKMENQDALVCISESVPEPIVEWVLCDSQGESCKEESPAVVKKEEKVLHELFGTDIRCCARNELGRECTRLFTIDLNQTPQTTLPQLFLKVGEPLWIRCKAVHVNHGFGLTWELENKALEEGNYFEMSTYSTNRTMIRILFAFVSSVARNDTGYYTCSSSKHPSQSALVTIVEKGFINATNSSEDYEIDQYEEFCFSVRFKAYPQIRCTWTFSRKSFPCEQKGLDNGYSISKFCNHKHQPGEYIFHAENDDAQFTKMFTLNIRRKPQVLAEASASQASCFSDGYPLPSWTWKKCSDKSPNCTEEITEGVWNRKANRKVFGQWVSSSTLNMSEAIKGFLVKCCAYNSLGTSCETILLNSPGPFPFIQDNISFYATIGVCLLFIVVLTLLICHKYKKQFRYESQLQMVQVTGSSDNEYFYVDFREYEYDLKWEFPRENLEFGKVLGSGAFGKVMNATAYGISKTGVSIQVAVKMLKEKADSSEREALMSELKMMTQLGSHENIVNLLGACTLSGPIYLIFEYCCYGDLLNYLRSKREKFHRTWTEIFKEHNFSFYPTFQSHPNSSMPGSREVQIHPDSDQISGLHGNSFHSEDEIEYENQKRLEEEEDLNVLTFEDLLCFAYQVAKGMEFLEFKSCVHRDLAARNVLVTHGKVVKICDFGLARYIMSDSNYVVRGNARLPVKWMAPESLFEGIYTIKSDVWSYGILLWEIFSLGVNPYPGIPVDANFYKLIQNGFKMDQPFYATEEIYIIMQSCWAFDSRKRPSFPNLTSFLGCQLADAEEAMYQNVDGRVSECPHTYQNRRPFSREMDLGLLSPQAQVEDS
Protocol: as §1
2. FLT3 kinase (Carna, Cat. No. 08-154, Lot. No. 07CBS-2350), FLT3-ITD kinase (Invitrogen, Cat. No. PV6191, Lot. No. 1753453) and FLT3-D835Y kinase (Invitrogen, Cat. No. PR7450A, Lot. No. 1629729C) were diluted to the optimum concentration with the following buffer solution: 50 mM HEPES, pH 7.5, 0.0015% Brij-35, 10 mM MgCl2, 2 mM DTT. Transfer to the 96-well plate and incubate with the compound at 28° C. for a period of time.
as §3, §4

T4 sequence (P21802 22-821): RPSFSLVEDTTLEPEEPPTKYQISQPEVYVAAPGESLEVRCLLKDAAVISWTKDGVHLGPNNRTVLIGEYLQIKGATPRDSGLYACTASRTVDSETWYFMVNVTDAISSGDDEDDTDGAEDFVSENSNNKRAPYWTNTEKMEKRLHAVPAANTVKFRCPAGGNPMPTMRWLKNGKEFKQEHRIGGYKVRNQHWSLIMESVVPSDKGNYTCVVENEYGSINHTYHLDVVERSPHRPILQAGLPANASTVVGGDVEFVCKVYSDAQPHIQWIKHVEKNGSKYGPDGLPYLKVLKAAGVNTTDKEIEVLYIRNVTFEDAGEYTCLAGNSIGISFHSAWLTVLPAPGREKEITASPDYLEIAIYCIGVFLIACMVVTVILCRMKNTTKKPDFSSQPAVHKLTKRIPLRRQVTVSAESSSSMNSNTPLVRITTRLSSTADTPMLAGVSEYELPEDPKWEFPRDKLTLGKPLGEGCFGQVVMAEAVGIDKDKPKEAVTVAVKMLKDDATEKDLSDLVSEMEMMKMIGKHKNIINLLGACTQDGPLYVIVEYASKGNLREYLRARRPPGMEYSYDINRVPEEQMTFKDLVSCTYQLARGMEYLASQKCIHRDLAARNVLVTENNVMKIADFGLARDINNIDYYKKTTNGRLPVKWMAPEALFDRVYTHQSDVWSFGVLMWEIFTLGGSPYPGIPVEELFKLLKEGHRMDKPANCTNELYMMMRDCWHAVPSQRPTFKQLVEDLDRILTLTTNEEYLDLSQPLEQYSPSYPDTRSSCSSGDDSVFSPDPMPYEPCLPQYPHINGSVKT
T1 sequence (P07948 whole entry): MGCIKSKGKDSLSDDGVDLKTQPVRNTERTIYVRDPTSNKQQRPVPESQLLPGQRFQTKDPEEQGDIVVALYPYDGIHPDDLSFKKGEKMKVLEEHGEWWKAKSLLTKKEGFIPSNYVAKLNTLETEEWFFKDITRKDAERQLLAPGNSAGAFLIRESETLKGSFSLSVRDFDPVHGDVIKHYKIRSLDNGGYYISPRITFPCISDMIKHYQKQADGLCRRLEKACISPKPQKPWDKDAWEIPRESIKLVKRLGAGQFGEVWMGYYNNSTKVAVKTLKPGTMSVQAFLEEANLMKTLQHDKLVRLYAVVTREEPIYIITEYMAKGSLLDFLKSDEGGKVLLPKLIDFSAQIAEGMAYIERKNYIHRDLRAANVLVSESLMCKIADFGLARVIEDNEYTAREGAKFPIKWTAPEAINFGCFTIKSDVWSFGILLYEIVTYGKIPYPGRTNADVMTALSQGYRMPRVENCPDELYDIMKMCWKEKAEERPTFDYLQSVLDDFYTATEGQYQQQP
T3 sequence (P09769 whole entry): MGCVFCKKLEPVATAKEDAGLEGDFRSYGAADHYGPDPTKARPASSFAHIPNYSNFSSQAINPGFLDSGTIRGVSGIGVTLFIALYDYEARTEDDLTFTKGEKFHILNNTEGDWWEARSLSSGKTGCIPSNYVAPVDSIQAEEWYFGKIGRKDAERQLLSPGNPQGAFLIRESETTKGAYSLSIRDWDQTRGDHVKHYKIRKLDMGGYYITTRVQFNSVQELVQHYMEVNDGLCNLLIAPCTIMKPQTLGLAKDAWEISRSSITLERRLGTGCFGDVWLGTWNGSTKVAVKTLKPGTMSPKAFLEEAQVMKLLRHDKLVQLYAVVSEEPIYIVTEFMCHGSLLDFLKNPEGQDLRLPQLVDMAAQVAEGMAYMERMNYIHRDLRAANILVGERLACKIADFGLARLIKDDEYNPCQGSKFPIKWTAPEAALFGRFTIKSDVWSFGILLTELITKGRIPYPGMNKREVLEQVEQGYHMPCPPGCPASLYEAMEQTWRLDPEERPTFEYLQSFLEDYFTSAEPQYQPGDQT
T2 sequence (P06239 whole entry): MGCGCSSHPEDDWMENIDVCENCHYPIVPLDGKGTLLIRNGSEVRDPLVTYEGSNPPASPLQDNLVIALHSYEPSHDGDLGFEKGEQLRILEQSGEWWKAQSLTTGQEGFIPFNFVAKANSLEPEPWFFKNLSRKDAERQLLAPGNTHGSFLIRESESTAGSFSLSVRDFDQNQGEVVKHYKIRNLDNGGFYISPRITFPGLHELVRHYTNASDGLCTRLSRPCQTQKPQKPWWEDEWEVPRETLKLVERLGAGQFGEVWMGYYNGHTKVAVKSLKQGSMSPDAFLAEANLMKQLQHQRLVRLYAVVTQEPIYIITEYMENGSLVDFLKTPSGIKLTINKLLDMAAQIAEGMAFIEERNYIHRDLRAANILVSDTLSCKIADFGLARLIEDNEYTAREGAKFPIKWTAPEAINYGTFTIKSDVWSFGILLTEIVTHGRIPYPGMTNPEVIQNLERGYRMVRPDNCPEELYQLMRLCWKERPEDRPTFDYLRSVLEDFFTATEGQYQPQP

Row | SMILES | IC50 [1] | IC50 [2] | IC50 [3] | IC50 [4] | IC50 [5]
1 | COc1cc(F)ccc1-c1c(C)sc2cnc(Nc3cnn(C4CCNCC4)c3)nc12 [Compound 31, N-[7-(4-fluoro-2-methoxyphenyl)-6-methylthieno[3,2-d]pyrimidinyl-2-yl]-1-(piperidinyl-4-yl)-1H-pyrazol-4-amine] | 1.3 nM | 5.5 nM | 14 nM | 10 nM | 0.2 nM
2 | COc1cc(F)ccc1-c1c(C)sc2cnc(Nc3cnn(C4CCN(CCO)CC4)c3)nc12 [Compound 34, 2-[4-(4-{[7-(4-fluoro-2-methoxyphenyl)-6-methylthieno[3,2-d]pyrimidinyl-2-yl]amino}-1H-pyrazol-1-yl)-piperidinyl-1-yl]-1-ethanol] | < 5 nM | < 5 nM | 11 nM | 8.9 nM | 0.23 nM
